From patent US20210236668A1, “COMPOSITIONS FOR RADIOTHERAPY AND USES THEREOF” (The Trustees of Columbia University in the City of New York, priority 2018, published 2021)
Several values for one entry are separate records, joined by “and”; a condition that tells them apart may be missing. Identical values can stand only once. Counter-ions that a name gives are not always drawn. Like-named read-outs stand apart in the source and are kept apart here.

Columns and labels:
[1] = test system: NCI-2052H cells; assay: Cytotoxicity assay (MTS, CellTiter 96 AQueous One, 490 nm), 72 hrs; type: cell-based; details: for Average reading: cells + drug: absorbance 490 nm
Method: Read absorbance (MTS assay) and calculate cells survival rate. Compare survival rate
1,500,000 cells/440,000=3.4 ml of cells/media mix need to take from flask and transfer to 26.6 ml media. In 50 ml Falcon tube, combine 26.6 ml fresh medium and 3.4 ml cells. Gently mix.
1. Centrifuge tubes at 3200 rpm for 3 min. Take out supernatant.
6. Check the plates and start incubation for 72 hrs at 37° C./5% CO2.
5. Incubate plate 1 hr at 37° C., 5% CO2.
Compare survival rate of cells.
1. […] Protocol how to do that see in previous cytotoxicity experiment.
1. Incubate plate for 72 hrs at 37° C., 5% CO2.
6. Incubate plate 1 hr at 37° C., 5% CO2.

[2] = test system: NCI-28H cells; details: for % survival cells after exposure to drug for 72 hrs (cells + drug only) / Average absorbance readings: cells + drug / % survival from untreated cells: cells + drug / Average absorbance reading: cells + drug / Average reading: cells + drug: NCI-28H
[3] = Talc bound to hot/cold Avidin, 48 hrs wash in PBS containing 10% FBS, absorbance 450 nm; type: physicochemical; details: 48 hrs in PBS containing 10% FBS
Method: Purpose: To check how strong the conjugate of hot/cold Avidin to Talc is. […] Absorbance will be checked twice—once before washing with PBS containing 10% FBS and after 48 hours, washing will be done.
14. […] Two identical microplates need to be set up, labeling them as: plate #1 and plate #2. Design of the plate:
3. Wash both plates 3× with 300 μL PBS.
5. […] Mix constantly, cover plate with Aluminum foil.
6. Add 100 μL of TMB to samples in plate #1.
9. Read absorbance at 450 nm using the plate reader.
3. Collect 100 μL supernatant from samples except native controls and load on same plate.
4. Wash plate except supernatant samples 3× with 300 μL PBS.
6. Add 100 μL of TMB to all samples in plate #2.

CO[C@@]12[C@H](COC(N)=O)C3=C(C(=O)C(C)=C(N)C3=O)N1C[C@@H]1N[C@@H]12 [mitomycin, Mitomycin]
Average reading: cells + drug ([1]; mitomycin 0.013 μM): 1.284
Average reading: cells + drug ([1]; mitomycin 0.064 μM): 1.199
Average reading: cells + drug ([1]; mitomycin 8 μM): 0.4142
Average reading: cells + drug ([1]; mitomycin 40 μM): 0.2305
Average reading: cells + drug ([1]; mitomycin 200 μM): 0.2098
Average reading: cells + drug ([1]; mitomycin .0026 μM): 1.424
% survival cells after exposure to drug for 72 hrs (cells + drug only) ([2]; mitomycin 0.0026 μM, 72 hrs): 106.12%
Average absorbance readings: cells + drug ([2]; mitomycin 0.0026 μM): 2.032
% survival cells after exposure to drug for 72 hrs (cells + drug only) ([2]; mitomycin 0.013 μM, 72 hrs): 102.65%
Average absorbance readings: cells + drug ([2]; mitomycin 0.013 μM): 1.965
% survival cells after exposure to drug for 72 hrs (cells + drug only) ([2]; mitomycin 0.064 μM, 72 hrs): 98.03%
Average absorbance readings: cells + drug ([2]; mitomycin 0.064 μM): 1.8766
% survival cells after exposure to drug for 72 hrs (cells + drug only) ([2]; mitomycin 8 μM, 72 hrs): 18.03%
Average absorbance readings: cells + drug ([2]; mitomycin 8 μM): 0.3451
% survival cells after exposure to drug for 72 hrs (cells + drug only) ([2]; mitomycin 40 μM, 72 hrs): 27.16%
Average absorbance readings: cells + drug ([2]; mitomycin 40 μM): 0.52
% survival cells after exposure to drug for 72 hrs (cells + drug only) ([2]; mitomycin 200 μM, 72 hrs): 12.87%
Average absorbance readings: cells + drug ([2]; mitomycin 200 μM): 0.2464

CC(=O)O[C@H]1C(=O)[C@@]2(C)[C@H]([C@H](OC(=O)c3ccccc3)[C@]3(O)C[C@H](OC(=O)[C@H](O)[C@@H](NC(=O)c4ccccc4)c4ccccc4)C(C)=C1C3(C)C)[C@]1(OC(C)=O)CO[C@@H]1C[C@@H]2O [Paclitaxel]
Average reading: cells + drug ([1]; paclitaxel 0.256 nM): 1.4273
Average reading: cells + drug ([1]; paclitaxel 6.4 nM): 1.54
Average reading: cells + drug ([1]; paclitaxel 32 nM): 0.5818
Average reading: cells + drug ([1]; paclitaxel 160 nM): 0.4361
Average reading: cells + drug ([1]; paclitaxel 800 nM): 0.4326
Average reading: cells + drug ([1]; paclitaxel 4000 nM): 0.553
Average reading: cells + drug ([1]; paclitaxel 20,000 nM): 0.1647
Average readings: cells + drug ([2]; Paclitaxel 80 nM, absorbance 490 nm): 1.10

Nc1ccn([C@@H]2O[C@H](CO)[C@@H](O)C2(F)F)c(=O)n1 [gemcitabine, Gemcitabine]
cytotoxicity to NCI-28H cells, comparison [2]: clear cytotoxic effect
% survival from untreated cells: cells + drug ([2]; gemcitabine 0.0026 μM): 114.61%
Average absorbance reading: cells + drug ([2]; gemcitabine 0.0026 μM): 2.034
% survival from untreated cells: cells + drug ([2]; gemcitabine 0.013 μM): 107.85%
Average absorbance reading: cells + drug ([2]; gemcitabine 0.013 μM): 1.914
% survival from untreated cells: cells + drug ([2]; gemcitabine 0.064 μM): 80.60%
Average absorbance reading: cells + drug ([2]; gemcitabine 0.064 μM): 1.43
% survival from untreated cells: cells + drug ([2]; gemcitabine 8 μM): 56.58%
Average absorbance reading: cells + drug ([2]; gemcitabine 8 μM): 1.004
% survival from untreated cells: cells + drug ([2]; gemcitabine 40 μM): 60.09%
Average absorbance reading: cells + drug ([2]; gemcitabine 40 μM): 1.0663
% survival from untreated cells: cells + drug ([2]; gemcitabine 200 μM): 52.70%
Average absorbance reading: cells + drug ([2]; gemcitabine 200 μM): 0.9352

Avidin: Avidin from egg white (Sigma A9275), 66 kDa biotin-binding protein; unlabeled = cold Avidin
binding of Avidin to talc at 48 hours [3]: unchanged

N.N.[Cl][Pt][Cl] [Cisplatin]
cytotoxicity to NCI-28H cells, comparison [2]: no noticeable difference in toxicity
Average reading: cells + cisplatin ([2]; 72 hrs, Cisplatin 20 μM): 0.48
Average reading: cells + cisplatin ([2]; 72 hrs, Cisplatin 100 μM): 0.59

COc1cccc2c1C(=O)c1c(O)c3c(c(O)c1C2=O)C[C@@](O)(C(=O)CO)C[C@@H]3O[C@H]1C[C@H](N)[C@H](O)[C@H](C)O1 [DOX, Doxorubicin Hydrochloride]
% survival from untreated cells ([1]; doxorubicin 400 nM): 57.76%
% survival from untreated cells ([1]; doxorubicin 2000 nM): 25.59%
% survival from untreated cells ([1]; doxorubicin 10,000 nM): 18.91%
AVERAGE: cells + DOX (absorbance) ([2]; 72 hrs, DOX 0.000064 μM): 1.18
AVERAGE: cells + DOX (absorbance) ([2]; 72 hrs, DOX 0.2 μM): 0.89
AVERAGE: cells + DOX (absorbance) ([2]; 72 hrs, DOX 1 μM): 0.67
AVERAGE: cells + DOX (absorbance) ([2]; 72 hrs, DOX 5 μM): 0.63
% survival from untreated by DOX cells ([2]; 72 hrs, Dox 200 nM): 65.0%
% survival NCI-28H cells after different treatment (compare to untreated cells) ([2]; cells + 125 nM DOX): 70%

N.N.O=C([O-])C1(C(=O)[O-])CCC1.[Pt+2] [Carboplatin]
% survival from untreated cells: cells + drug ([2]; carboplatin 0.006 μM): 90.84% and 94.28%
Average reading: cells + drug ([2]; carboplatin 0.006 μM, absorbance 490 nm): 1.504
% survival from untreated cells: cells + drug ([2]; carboplatin 0.8 μM): 85.98% and 87.53%
Average reading: cells + drug ([2]; carboplatin 0.8 μM, absorbance 490 nm): 1.4238
% survival from untreated cells: cells + drug ([2]; carboplatin 4 μM): 96.93% and 93.62%
Average reading: cells + drug ([2]; carboplatin 4 μM, absorbance 490 nm): 1.605
% survival from untreated cells: cells + drug ([2]; carboplatin 20 μM): 104.81% and 99.20%
Average reading: cells + drug ([2]; carboplatin 20 μM, absorbance 490 nm): 1.7355
% survival from untreated cells: cells + drug ([2]; carboplatin 100 μM): 83.82% and 79.53%
Average reading: cells + drug ([2]; carboplatin 100 μM, absorbance 490 nm): 1.388
% survival from untreated cells: cells + drug ([2]; carboplatin 500 μM): 37.38% and 35.14%
Average reading: cells + drug ([2]; carboplatin 500 μM, absorbance 490 nm): 0.6189
